Laboratory results taken from article PMC6211316, “Synthesis and biological evaluation of 3-arylcoumarin derivatives as potential anti-diabetic agents” (Journal of Enzyme Inhibition and Medicinal Chemistry, 2018).
Read-outs that look alike come from different tables or passages of the source. Each block holds one compound with its values, some of them ahead of it.

Tests used:
[1] = biological target: T1, α-Glucosidase (Saccharomyces cerevisiae, UniProt P53341); assay: biochemical; format: biochemical
T1 construct: purchased Sigma Aldrich G0660-750UN
T1 sequence (P53341 whole entry): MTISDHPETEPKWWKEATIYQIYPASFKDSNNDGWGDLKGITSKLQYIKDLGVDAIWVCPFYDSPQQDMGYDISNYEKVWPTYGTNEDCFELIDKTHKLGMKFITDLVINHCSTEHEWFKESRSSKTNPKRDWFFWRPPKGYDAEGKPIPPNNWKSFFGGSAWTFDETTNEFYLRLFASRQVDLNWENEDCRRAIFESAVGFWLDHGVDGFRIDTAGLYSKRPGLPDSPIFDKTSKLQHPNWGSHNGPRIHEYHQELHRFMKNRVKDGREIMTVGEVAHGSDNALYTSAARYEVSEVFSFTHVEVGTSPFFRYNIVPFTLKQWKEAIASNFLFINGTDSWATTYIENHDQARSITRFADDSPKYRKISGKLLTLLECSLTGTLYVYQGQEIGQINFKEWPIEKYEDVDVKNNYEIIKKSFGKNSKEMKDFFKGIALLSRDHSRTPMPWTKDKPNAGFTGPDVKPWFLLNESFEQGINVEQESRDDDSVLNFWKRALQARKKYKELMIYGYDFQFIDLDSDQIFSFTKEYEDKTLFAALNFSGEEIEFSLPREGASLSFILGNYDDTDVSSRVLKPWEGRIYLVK
Description: α-Glucosidase (G0660-750UN, Sigma Aldrich) and 4-Nitrophenyl α-D-glucopyranoside (PNPG, Macklin) were dissolved in phosphate buffer (pH 6.8, 100 mM), and the test compounds were dissolved in DMSO solution. The experiment was divided into blank group, control group, sample blank group, and sample group. The reagents were loaded in 96-well plates at the dose of the table (Table 8). The solution was bathed in 37 °C water for 10 min, and then enzyme solution was added. After reaction at 37 °C for 20 min, 70 μL Na2CO3 solution ([…]) was added to stop the reaction. All experiments were run in triplicate. […] Since PNPG can produce glucose and p-Nitrophenol (PNP) under the action of α-glucosidase, PNP has the greatest absorption at 405 nm. The absorbance was determined by the microplate reader, and the inhibition rate of α-glucosidase and the IC50 value of each sample were calculated according to the formula. Inhibition rate %={[(AC−AB)−(AS−ASB)]/(AC−AB)}×100% where AC is the absorbance of control group; AB is the absorbance of blank group; AS is the absorbance of sample group; ASB is the absorbance of sample blank group.

[2] = system: AGEs formation; assay: In vitro inhibitory activity of AGEs formation (bovine serum albumin/glucose); format: biochemical; conditions: mean ± SD (n = 3)
Description: To prepare the AGEs reaction solution, 10 mg/mL of bovine serum albumin in 50 mM PBS (pH 7.4) was added to 0.2 M glucose, and 0.02% sodium azide was added to prevent bacterial growth. The reaction mixture (3.0 ml) was then mixed with various concentrations (0.5–1000 μg/mL) of the target compounds (1.0 ml) dissolved in DMSO. After incubating at 37 °C for 14 d, the fluorescence intensity of AGE was determined by a fluorospectrophotometer (PE, USA) with excitation and emission wavelengths at 350 nm and 420 nm, respectively. All experiments were run in triplicate. Aminoguanidine hydrochloride was used as a reference compound. The inhibition rate of AGEs formation and the IC50 value of each sample were calculated according to the formula. Inhibition rate %={[(AC−AB)−(AS−ASB)]/(AC−AB)}×100% where AC is the absorbance of control group(1.0 ml glucose +1.0 ml bovine serum albumin +1.0 ml sodium azide +1.0 ml DMSO); AB is the absorbance of blank group(1.0 ml PBS +1.0 ml bovine serum albumin +1.0 ml sodium azide +1.0 ml DMSO); AS is the absorbance of sample group (1.0 ml glucose +1.0 ml bovine serum albumin +1.0 ml sodium azide +1.0 ml target compound solution or Aminoguanidine hydrochloride solution); ASB is the absorbance of sample blank group (1.0 ml PBS +1.0 ml bovine serum albumin +1.0 ml sodium azide +1.0 ml target compound solution or Aminoguanidine hydrochloride solution).

[3] = DPPH free radical scavenging; conditions: mean ± SD (n = 3)
Description: The effect of target compounds and vitamin C to scavenge the DPPH free radical was evaluated with the method described by Villano et al.[43] with slight modifications.
Two millilitres of different concentrations of the sample solution was added to 2.0 ml of DPPH solution (0.04 mg/mL), shaken and allowed to react at room temperature for 30 min. The absorbance value was measured at 517 nm with an ultraviolet-visible spectrophotometer. The blank reference cuvette contained absolute ethanol. All measurements were performed in triplicate. IC50 values were calculated. The percentage of DPPH radical scavenging rate of the target compound is calculated as follows: DPPH free radical scavenging effect (%)=[A0−(A1−A2)]/A0×100% where A0 is the absorbance of 2.0 ml DPPH solution +2.0 ml absolute ethanol; A1 is the absorbance of 2.0 ml DPPH solution +2.0 ml 3-arylcoumarins solution or standard; A2 is the absorbance of 2.0 ml 3-arylcoumarins solution or standard +2.0 ml absolute ethanol.

[4] = hydroxyl radical scavenging; conditions: mean ± SD (n = 3), read-out: OH IC50 Value
Description: The ability of the target compounds and vitamin C to scavenge the hydroxyl radical was evaluated with method described by Ismaili et al.[29] with slight modifications. In test tube, 1.0 ml H2O2 solution (0.03%), 1.0 ml FeSO4 solution (2 mmol.L^−1), 1.0 ml salicylic acid solution (10 mmol.L^−1) and 1.0 ml of 3-arylcoumarins and standard water solution with different concentration (0.4–2.0 mg/mL) were mixed. Finally, 1.0 ml H2O2 solution (0.03%) was added to this mixture to start the reaction. Solutions were kept at 37 °C. After 30 min, the absorbance was measured at 510 nm against the reagent blank, where the distilled water was substituted for the H2O2 solution. The percentage of OH scavenging by target compounds and vitamin C was calculated the following equation: OH scavenging effect (%)=[A0−(A1−A2)]/A0×100% where A0 is the absorbance of 1.0 ml distilled water +1.0 ml H2O2 + 1.0 ml FeSO4 + 1.0 ml salicylic acid +1.0 ml H2O2; A1 is the absorbance of 1.0 ml 3-arylcoumarins or standard +1.0 ml H2O2 + 1.0 ml FeSO4 + 1.0 ml salicylic acid +1.0 ml H2O2; A2 is the absorbance of 1.0 ml 3-arylcoumarins or standard +1.0 ml H2O2 + 1.0 ml FeSO4 + 1.0 ml absolute absolute ethanol +1.0 ml H2O2.

[5] = system: normal mice; assay: Acute hypoglycemic assay in normal mice; format: in vivo; conditions: 10 mg/kg of bw per os
Description: (§1) STZ-induced diabetic mice and normal mice were placed in single cages with wire-net floors and deprived of food for 12 h before experimentation but allowed free access to tap water throughout. The compounds (at the doses of 10, 30, and 100 mg/kg of bw) were suspended in 0.05% Tween-80 in saline solution. Glibenclamide (10 mg/kg of bw) was suspended in the same vehicle. The target compounds were freshly prepared immediately before experimentation and administered by the intragastrical route at the doses of 10 ml/kg of bw. Control mice received only the vehicle (0.05% Tween-80 in saline solution) by the same route. Blood glucose levels were measured at 0, 1.5, 3, 5, 7, and 9 h after drugs administration.

[6] = system: STZ-diabetic mice; assay: Acute hypoglycemic assay in STZ-diabetic mice; format: in vivo; conditions: for Blood glucose concentration / % Variation of glycemia: STZ-diabetics mice, 10 mg/kg of bw per os
Description: Type II diabetes mellitus was induced in mice by a single intraperitoneal injection of freshly prepared STZ (Sigma Aldrich) dissolved in 0.1M citrate buffer, pH 4.5, in a volume of 110 mg/kg of bw. After 7 days of STZ administration, blood glucose levels of each mouse were determined. Mice with blood glucose levels higher than 11 mM were considered diabetic and were included in the study.
as §1

[7] = mean ± SD (n = 3), read-out: α-Glucosidase inhibitory activity IC50 Value

Compound: COc1ccc(-c2cc3ccc(O)c(O)c3oc2=O)cc1OC [Compound 43, 7,8-Dihydroxy-3-(3,4-dimethoxyphenyl)-coumarin]
IC50 [1]: > 1000 µM | IC50 [2]: 25.2 ± 1.72 µM | IC50 [3]: 4.24 ± 0.06 µM | IC50 [4]: 887 ± 15.8 µM | melting point: 290.5 to 291.9 °C

Compound: O=c1oc2cc(O)ccc2cc1-c1ccc(Br)cc1 [Compound 44, 7-Hydroxy-3-(4-brominephenyl)-coumarin]
IC50 [1, 7]: > 1000 µM | IC50 [2]: 7.51 ± 0.38 µM | IC50 [3]: > 1000 µM | IC50 [4]: > 1000 µM

Compound: Cc1ccc(C)c(-c2cc3ccc(O)c(O)c3oc2=O)c1 [Compound 33, 7,8-Dihydroxy-3-(2,5-dimethylphenyl)-coumarin]
IC50 [1]: > 1000 µM | IC50 [3]: 2.98 ± 0.03 µM | IC50 [4]: 903 ± 41.9 µM | melting point: 190.3 to 190.5 °C

Compound: O=c1oc2cc(O)cc(O)c2cc1-c1ccc(F)cc1 [Compound 31, 5,7-Dihydroxy-3-(4-fluorophenyl)-coumarin]
IC50 [1]: 19.1 ± 0.26 µM | IC50 [3]: 595 ± 11.3 µM | IC50 [4]: > 1000 µM | melting point: 267 to 267.6 °C

Compound: COc1ccc(Cl)cc1C(=O)NCCc1ccc(S(=O)(=O)NC(=O)NC2CCCCC2)cc1 [Glibenclamide, reference compound]
Blood glucose concentration ([5]; 0h): 9.8 ± 1.5 mM | % Variation of glycemia ([5]; 1.5h): (−34.58) % | Blood glucose concentration ([5]; 1.5h): 6.4 ± 1.4 mM | % Variation of glycemia ([5]; 3h): (−41.36) % | Blood glucose concentration ([5]; 3h): 5.8 ± 0.8 mM | % Variation of glycemia ([5]; 5h): (−49.15) % | Blood glucose concentration ([5]; 5h): 5.0 ± 1.4 mM | % Variation of glycemia ([5]; 7h): (−56.61) % | Blood glucose concentration ([5]; 7h): 4.3 ± 0.6 mM | % Variation of glycemia ([5]; 9h): (−58.31) % | Blood glucose concentration ([5]; 9h): 4.1 ± 0.7 mM | Blood glucose concentration ([6]; 0h): 16.9 ± 4.3 mM | % Variation of glycemia ([6]; 1.5h): (−55.28) % | Blood glucose concentration ([6]; 1.5h): 7.2 ± 4.0 mM | % Variation of glycemia ([6]; 3h): (−57.14) % | Blood glucose concentration ([6]; 3h): 6.9 ± 1.6 mM | % Variation of glycemia ([6]; 5h): (−55.90) % | Blood glucose concentration ([6]; 5h): 6.7 ± 2.5 mM | % Variation of glycemia ([6]; 7h): (−59.63) % | Blood glucose concentration ([6]; 7h): 6.5 ± 2.2 mM | % Variation of glycemia ([6]; 9h): (−70.81) % | Blood glucose concentration ([6]; 9h): 4.9 ± 2.5 mM | time of maximum hypoglycemic effect ([6]; STZ-induced diabetic mice, 10 mg/kg of bw): 9 h

Compound: COc1ccc(-c2cc3cccc(O)c3oc2=O)cc1 [Compound 22, 8-Hydroxy-3-(4-methoxyphenyl)-coumarin]
IC50 [1]: > 1000 µM | IC50 [2]: 23.1 ± 0.82 µM | IC50 [3]: 15.63 ± 0.11 µM | IC50 [4]: > 1000 µM

IC50 [1, 7]: 60.88 ± 0.55 µM | IC50 [2]: > 1000 µM | IC50 [3]: > 1000 µM | IC50 [4]: > 1000 µM
Compound: O=c1oc2ccccc2cc1-c1ccc(O)cc1 [Compound 6, 3-(4-Hydroxyphenyl)-coumarin]

IC50 [1, 7]: 86.9 ± 1.17 µM | IC50 [2]: 20.6 ± 0.39 µM | IC50 [3]: > 1000 µM | IC50 [4]: > 1000 µM
Compound: O=c1oc2cc(O)ccc2cc1-c1ccc(F)cc1 [Compound 18, 7-Hydroxy-3-(4-fluorophenyl)-coumarin]

IC50 [1, 7]: 19.9 ± 3.39 µM | IC50 [3]: 756 ± 8.31 µM | IC50 [4]: > 1000 µM
Compound: O=c1oc2cc(O)ccc2cc1-c1ccc(O)cc1 [Compound 12, 7-Hydroxy-3-(4-hydroxyphenyl)-coumarin]

Compound: O=c1oc2c(O)cccc2cc1-c1ccc(O)cc1 [Compound 14, 8-Hydroxy-3-(4-hydroxyphenyl)-coumarin]
IC50 [1]: 213 ± 40.3 µM | IC50 [2]: 45.2 ± 5.28 µM | IC50 [3]: 167 ± 2.01 µM | IC50 [4]: > 1000 µM

Compound: O=c1oc2ccccc2cc1-c1ccc(Br)cc1 [Compound 40, 3-(4-brominephenyl)-coumarin]
IC50 [1, 7]: > 1000 µM | IC50 [2]: 13 ± 0.4 µM | IC50 [3]: > 1000 µM | IC50 [4]: > 1000 µM

Compound: O=c1oc2c(O)c(O)ccc2cc1-c1ccc(Br)cc1 [Compound 47, 7,8-Dihydroxy-3-(4-brominephenyl)-coumarin]
IC50 [1, 7]: 35.7 ± 0.48 µM | IC50 [2]: 299 ± 40.1 µM | IC50 [3]: 2.37 ± 0.06 µM | IC50 [4]: 688 ± 49.7 µM

Compound: O=c1oc2cc(O)cc(O)c2cc1-c1ccc(Br)cc1 [Compound 46, 5,7-Dihydroxy-3-(4-brominephenyl)-coumarin]
IC50 [1, 7]: > 1000 µM | IC50 [2]: 47.75 ± 0.15 µM | IC50 [3]: > 1000 µM | IC50 [4]: > 1000 µM

IC50 [1, 7]: 27.42 ± 0.11 µM | IC50 [2]: > 1000 µM | IC50 [3]: 53.9 ± 1.83 µM | IC50 [4]: > 1000 µM
Compound: COc1ccc(-c2cc3ccc(O)cc3oc2=O)cc1 [Compound 24, 7-Hydroxy-3-(4-methoxyphenyl)-coumarin]

IC50 [1, 7]: > 1000 µM | IC50 [3]: 173 ± 42.6 µM | IC50 [4]: > 1000 µM
Compound: COc1ccc(-c2cc3ccc(O)cc3oc2=O)cc1OC [Compound 37, 7-Hydroxy-3-(3,4-dimethoxyphenyl)-coumarin]

Compound: O=c1oc2c(O)cccc2cc1-c1ccc(Br)cc1 [Compound 45, 8-Hydroxy-3-(4-brominephenyl)-coumarin]
IC50 [1, 7]: > 1000 µM | IC50 [2]: > 1000 µM | IC50 [3]: 488 ± 95 µM | IC50 [4]: 596 ± 28.8 µM

IC50 [1, 7]: 247 ± 36.2 µM | IC50 [2]: 14.2 ± 1.33 µM | IC50 [3]: 1.33 ± 0.03 µM | IC50 [4]: 244 ± 11.8 µM
Compound: O=c1oc2c(O)c(O)ccc2cc1-c1ccc(O)c(O)c1 [Compound 36, 7,8-Dihydroxy-3-(3,4-dihydroxyphenyl)-coumarin]

IC50 [1, 7]: 118 ± 41.5 µM | IC50 [2]: > 1000 µM | IC50 [3]: 60.2 ± 1.27 µM | IC50 [4]: > 1000 µM
Compound: Cc1ccc(-c2cc3ccc(O)cc3oc2=O)cc1 [Compound 9, 7-Hydroxy-3-(4-methylphenyl)-coumarin]
